Experimental data from PubChem BioAssay AID1963986 (Molecular Pharmacology Branch, DTP, NCI, 2024).
Values belong to the molecule of their own block, whether it stands above or below them.

Tested on: 171881-019-R-J1-PDC tumor spheroid viability
Assay: Anticancer human tumor 171881-019-R-J1-PDC patient-derived invasive breast carcinoma cell line growth inhibition [PI3K]
Conditions: spheroids with HUVEC and MSC; for IC50: curve of first compound; for viability, T/C: stronger effect = lower value
Summary of the method: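 Three cell types, namely tumor cells, endothelial cells and mesenchymal stem cells, formed each spheroid. Combinations with four PI3K inhibitors were screened at clinically achievable concentrations decreasing by half-log, and spheroid viability was recorded.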

[1] = second compound 0.0316 µM, first compound 0.0316 µM
[2] = second compound 0.0316 µM, first compound 0.1 µM
[3] = second compound 0.0316 µM, first compound 0.316 µM
[4] = second compound 0.0316 µM, first compound 1 µM
[5] = second compound 0.1 µM, first compound 0.0316 µM
[6] = second compound 0.1 µM, first compound 0.1 µM
[7] = second compound 0.1 µM, first compound 0.316 µM
[8] = second compound 0.1 µM, first compound 1 µM
[9] = second compound 0.316 µM, first compound 0.0316 µM
[10] = second compound 0.316 µM, first compound 0.1 µM
[11] = second compound 0.316 µM, first compound 0.316 µM
[12] = second compound 0.316 µM, first compound 1 µM
[13] = second compound 1 µM, first compound 0.0316 µM
[14] = second compound 1 µM, first compound 0.1 µM
[15] = second compound 1 µM, first compound 0.316 µM
[16] = second compound 1 µM, first compound 1 µM
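Further: spheroids exposed to compound for 7 days before viability read.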
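Wherever viability, T/C is given: 100% = DMSO vehicle-treated spheroids.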

IC50 (second compound 0.0316 µM): > 1000 nM
IC50 (second compound 0.1 µM): > 1000 nM
IC50 (second compound 0.316 µM): > 1000 nM
IC50 (second compound 1 µM): < 3.16 nM
IC50 (second compound 3.16 µM): < 3.16 nM
IC50 (second compound 10 µM): < 3.16 nM
Compound: CCN1CCN(Cc2ccc(Nc3ncc(F)c(-c4cc(F)c5nc(C)n(C(C)C)c5c4)n3)nc2)CC1 + Cc1nc(NC(=O)N2CCCC2C(N)=O)sc1-c1ccnc(C(C)(C)C(F)(F)F)c1
viability, T/C (second compound 0.0316 µM, first compound 0.00316 µM): 102%
viability, T/C (second compound 0.0316 µM, first compound 0.01 µM): 92.9%
viability, T/C [1]: 98.6%
viability, T/C [2]: 103%
viability, T/C [3]: 111%
viability, T/C [4]: 103%
viability, T/C (second compound 0.1 µM, first compound 0.00316 µM): 83.9%
viability, T/C (second compound 0.1 µM, first compound 0.01 µM): 85.8%
viability, T/C [5]: 91.5%
viability, T/C [6]: 91.9%
viability, T/C [7]: 105%
viability, T/C [8]: 104%
viability, T/C (second compound 0.316 µM, first compound 0.00316 µM): 59.5%
viability, T/C (second compound 0.316 µM, first compound 0.01 µM): 61.1%
viability, T/C [9]: 72.2%
viability, T/C [10]: 73.8%
viability, T/C [11]: 80.7%
viability, T/C [12]: 83.3%
viability, T/C (second compound 1 µM, first compound 0.00316 µM): 37.2%
viability, T/C (second compound 1 µM, first compound 0.01 µM): 38.8%
viability, T/C [13]: 39.1%
viability, T/C [14]: 45%
viability, T/C [15]: 53.3%
viability, T/C [16]: 61.5%
viability, T/C (second compound 3.16 µM, first compound 0.00316 µM): 15.4%
viability, T/C (second compound 3.16 µM, first compound 0.01 µM): 17%
viability, T/C (second compound 3.16 µM, first compound 0.0316 µM): 19.5%
viability, T/C (second compound 3.16 µM, first compound 0.1 µM): 21%
viability, T/C (second compound 3.16 µM, first compound 0.316 µM): 28.6%
viability, T/C (second compound 3.16 µM, first compound 1 µM): 42%
viability, T/C (second compound 10 µM, first compound 0.00316 µM): 3.79%
viability, T/C (second compound 10 µM, first compound 0.01 µM): 4.44%
viability, T/C (second compound 10 µM, first compound 0.0316 µM): 4.59%
viability, T/C (second compound 10 µM, first compound 0.1 µM): 4.85%
viability, T/C (second compound 10 µM, first compound 0.316 µM): 8.73%
viability, T/C (second compound 10 µM, first compound 1 µM): 14.2%

IC50 (second compound 0.00316 µM): > 10000 nM
IC50 (second compound 0.01 µM): > 10000 nM
IC50 (second compound 0.0316 µM): 3830 nM
IC50 (second compound 0.1 µM): < 31.6 nM
IC50 (second compound 0.316 µM): < 31.6 nM
IC50 (second compound 1 µM): < 31.6 nM
Compound: CNC(=O)c1ccc(N2C(=S)N(c3ccc(C#N)c(C(F)(F)F)c3)C(=O)C2(C)C)cc1F + CC(Nc1ccc2c(c1)OCCn1cc(N3C(=O)OCC3C(F)F)nc1-2)C(N)=O
viability, T/C (second compound 0.00316 µM, first compound 0.0316 µM): 82.6%
viability, T/C (second compound 0.00316 µM, first compound 0.1 µM): 88%
viability, T/C (second compound 0.00316 µM, first compound 0.316 µM): 82.4%
viability, T/C (second compound 0.00316 µM, first compound 1 µM): 93.6%
viability, T/C (second compound 0.00316 µM, first compound 3.16 µM): 81%
viability, T/C (second compound 0.00316 µM, first compound 10 µM): 69.5%
viability, T/C (second compound 0.01 µM, first compound 0.0316 µM): 75.1%
viability, T/C (second compound 0.01 µM, first compound 0.1 µM): 73.8%
viability, T/C (second compound 0.01 µM, first compound 0.316 µM): 77%
viability, T/C (second compound 0.01 µM, first compound 1 µM): 74.5%
viability, T/C (second compound 0.01 µM, first compound 3.16 µM): 78.3%
viability, T/C (second compound 0.01 µM, first compound 10 µM): 62.3%
viability, T/C [1]: 55.2%
viability, T/C [2]: 56.7%
viability, T/C [3]: 57%
viability, T/C [4]: 56.6%
viability, T/C (second compound 0.0316 µM, first compound 3.16 µM): 53.1%
viability, T/C (second compound 0.0316 µM, first compound 10 µM): 33.8%
viability, T/C [5]: 39.1%
viability, T/C [6]: 41.5%
viability, T/C [7]: 38.1%
viability, T/C [8]: 39.9%
viability, T/C (second compound 0.1 µM, first compound 3.16 µM): 38%
viability, T/C (second compound 0.1 µM, first compound 10 µM): 30.5%
viability, T/C [9]: 28.2%
viability, T/C [10]: 27.9%
viability, T/C [11]: 25.2%
viability, T/C [12]: 28.5%
viability, T/C (second compound 0.316 µM, first compound 3.16 µM): 24.8%
viability, T/C (second compound 0.316 µM, first compound 10 µM): 22.1%
viability, T/C [13]: 20.8%
viability, T/C [14]: 21.3%
viability, T/C [15]: 24.9%
viability, T/C [16]: 18.5%
viability, T/C (second compound 1 µM, first compound 3.16 µM): 20.1%
viability, T/C (second compound 1 µM, first compound 10 µM): 18.7%
